# Source: patent publication US9695132B2, “Heteroaryl compounds and uses thereof” (Celgene CAR LLC, priority 2013, dated 2017)
# Like-named read-outs stand apart in the source and are kept apart here.
# Legend:
# pFGFR4 in Huh7 cells = pFGFR4 in Huh7 cells (Homo sapiens (Human), UniProt P22455); assay: FGFR4 signaling, Meso Scale assay (MSD), Method B, Huh7
# Method: Huh7 cells were grown in DMEM (Invitrogen, Carlsbad, Calif.) supplemented with 10% FBS (Invitrogen) and 1% Penicillin-Streptomycin (P/S, Lonza, Walkersville, Md.).
# For the MSD and ELISA assays, total FGFR4 antibodies were obtained from R&D Systems (Minneapolis, Minn.) and used at 1:500. […] Phospho-FGFR antibodies were obtained from Cell Signaling (Danvers, Mass.) or R&D Systems and used at 1:1000. The phopho-FGFR antibody from Cell Signaling was used for immunoblotting, whereas the phopho-FGFR antibody from R&D was used for MSD and ELISA assays. Secondary antibodies were used at 1:10,000. The goat anti-mouse IgG IRDye 800CW antibody was obtained from LiCor Biosciences (Lincoln, Nebr.) and the goat anti-rabbit IgG Alexa Fluor 680 was obtained from Invitrogen. The anti-rabbit Sulfo-tag and anti-streptavidin Sulfo-tag antibodies was obtained from Meso Scale Discovery (Gaithersburg, Md.), and were used at 1:1000 and 1:5000, respectively.
# After treatment, the cells were washed with cold PBS (Invitrogen), and were immediately lysed by freeze/thawing 3× in 32 μL of cold Cell Extraction Buffer (Invitrogen), which was supplemented with Complete Protease inhibitors (Roche) and PhosphoSTOP (Roche) phosphatase inhibitors.
# MSD plates (Meso Scale Discovery) were coated with total FGFR-4 antibodies overnight at 4° C. A lysate (25 μL) was added to the MSD plate overnight at 4° C. The MSD signals were obtained by incubating with a phospho-FGFR antibody (R&D Systems) and an anti-rabbit sulfo-tag antibody (Meso Scale), for 2 hr at room temperature. […] The data was fitted using a sigmoidal curve analysis program (Graph Pad Prism version 5) with variable Hill slope to determine the EC50 values.
# FGFR4-WT = FGFR4-WT (Homo sapiens (Human), UniProt P22455); assay: Omnia assay for potency assessment against FGFR4 enzyme; assay type: biochemical
# Method: A 10× stock solution of FGFR4-WT (PR4380C), (from Invitrogen, Carlsbad, Calif.) corresponding to method a in Table 7, was prepared as described below. Alternatively, a 10× stock solution of FGFR4-WT (F01-11G), (SignalChem, Richmond, BC) corresponding to method b in Table 7, was prepared as described below. A solution of 1.4×ATP (AS001A) and 5× Tyr-Sox conjugated peptide substrate (KNZ3101) were prepared in 1× kinase reaction buffer consisting of 20 mM Tris, pH 7.5, 5 mM MgCl2, 1 mM EGTA, 5 mM β-glycerophosphate, 5% glycerol (10× stock, KB002A) and 0.2 mM DTT (DS001A). […] The serially diluted compounds were prepared on a Tecan EVO100. A second addition of 10 μl of Tyr-Sox FGFR4 substrate was added to each well and the kinase reactions were started with the addition of 35 μL of 1.4×ATP. The reactions were monitored every 71 seconds for 240 minutes at λex360/λem485 in a Synergy plate reader from BioTek (Winooski, Vt.).
# [1] = method a: [FGFR4-WT]=10 nM (Invitrogen), [ATP]=300 uM, [Y10-Sox]=10 uM
# [2] = method b: [FGFR4-WT]=2.5 nM (SignalChem), [ATP]=250 uM, [Y10-Sox]=10 uM
# Chain of FGFR4-WT (P22455 22-802): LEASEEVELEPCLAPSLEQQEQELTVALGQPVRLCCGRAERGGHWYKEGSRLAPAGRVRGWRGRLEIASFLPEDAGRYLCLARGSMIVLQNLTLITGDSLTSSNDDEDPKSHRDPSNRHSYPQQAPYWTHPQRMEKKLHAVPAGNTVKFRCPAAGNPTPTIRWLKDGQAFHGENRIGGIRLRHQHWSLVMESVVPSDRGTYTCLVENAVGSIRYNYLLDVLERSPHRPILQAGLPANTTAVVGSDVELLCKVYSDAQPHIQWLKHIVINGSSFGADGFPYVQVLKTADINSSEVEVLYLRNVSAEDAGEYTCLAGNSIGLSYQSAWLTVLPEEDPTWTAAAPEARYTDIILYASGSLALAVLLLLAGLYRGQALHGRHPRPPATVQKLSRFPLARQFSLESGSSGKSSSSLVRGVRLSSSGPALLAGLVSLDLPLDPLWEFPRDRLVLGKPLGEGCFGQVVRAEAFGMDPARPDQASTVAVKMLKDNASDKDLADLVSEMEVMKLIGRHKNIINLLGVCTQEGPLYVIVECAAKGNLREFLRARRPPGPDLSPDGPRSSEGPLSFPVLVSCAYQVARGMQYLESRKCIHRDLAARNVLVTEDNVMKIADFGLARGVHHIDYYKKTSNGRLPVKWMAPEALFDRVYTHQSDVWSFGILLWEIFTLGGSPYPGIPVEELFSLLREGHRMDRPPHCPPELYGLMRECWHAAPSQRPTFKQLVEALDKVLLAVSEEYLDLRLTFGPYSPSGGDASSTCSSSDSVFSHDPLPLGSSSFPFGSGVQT
# Chain of pFGFR4 in Huh7 cells (P22455 22-802): as above
Compound,EC50 (pFGFR4 in Huh7 cells),IC50 (FGFR4-WT; [1]),IC50 (FGFR4-WT; [2]),IC50 (FGFR4-WT)
C=CC(=O)Nc1ccccc1Nc1ncc2cc(-c3c(Cl)c(OC)cc(OC)c3Cl)c(=O)n(C)c2n1 [Compound I-244],< 100 nM,< 100 nM,,
COc1cc(OC)c(Cl)c(N2Cc3cnc(Nc4ccccc4)nc3N(C)C2=O)c1Cl [Compound I-238],< 100 nM,,,
C=CC(=O)NC1COCC1Nc1ncc2c(n1)N(C)C(=O)N(c1cc(C(=O)Nc3cccc(C(C)(C)C)c3)ccc1Cl)C2 (centres unmarked) [Compound I-247],< 100 nM,101 to 500 nM,,
C=CC(=O)Nc1ccccc1Nc1ncc2c(n1)N(Cc1ccc(F)cc1)C(=O)N(c1c(Cl)c(OC)cc(OC)c1Cl)C2 [Compound I-25],101 to 500 nM,,101 to 500 nM,
C=CC(=O)Nc1ccccc1Nc1ncc2c(n1)N(CC1CC1)C(=O)N(c1cc(OC)cc(OC)c1Cl)C2 [Compound I-100],< 100 nM,< 100 nM,,
C=CC(=O)Nc1ccccc1Nc1ncc2c(n1)N(Cc1cn[nH]c1)C(=O)N(c1c(Cl)c(OC)cc(OC)c1Cl)C2 [Compound I-124],< 100 nM,< 100 nM,,
C=CC(=O)Nc1ccccc1Nc1ncc2c(n1)N(C)C(=O)N(c1cc(OC)cc(OC)c1)C2 [Compound I-5],101 to 500 nM,< 100 nM,,
C=CC(=O)Nc1ccccc1Nc1ncc2c(n1)N(CC#N)C(=O)N(c1cc(OC)cc(OC)c1)C2 [Compound I-48],101 to 500 nM,< 100 nM,,
C=CC(=O)NC1COCC1Nc1ncc2c(n1)N(C)C(=O)N(c1cc(OC)c(OC)c(OC)c1)C2 (centres unmarked) [Compound I-207],> 1000 nM,> 1000 nM,,
C=CC(=O)Nc1ccccc1Nc1ncc2cc(-c3cc(OC)cc(OC)c3)c(N)nc2n1 [Compound I-155],> 1000 nM,,,
C=CC(=O)NC1CCCCC1Nc1ncc2c(n1)N(Cc1csc(C)n1)C(=O)N(c1c(Cl)c(OC)cc(OC)c1Cl)C2 (centres unmarked) [Compound I-137],101 to 500 nM,< 100 nM,,
C=CC(=O)NC1CN(C(C)=O)CC1Nc1ncc2c(n1)N(C)C(=O)N(c1c(Cl)c(OC)cc(OC)c1Cl)C2 (racemic) [Compound I-139],101 to 500 nM,,,
C=CC(=O)NC1CCCCC1Nc1ncc2c(n1)N(CCF)C(=O)N(c1c(Cl)c(OC)cc(OC)c1Cl)C2 (racemic) [Compound I-106],101 to 500 nM,,,
C=CC(=O)Nc1ccccc1Nc1ncc2c(n1)N(CCF)C(=O)N(c1cc(OC)cc(OC)c1Cl)C2 [Compound I-110],< 100 nM,< 100 nM,,
C=CC(=O)NC1COCC1Nc1ncc2c(n1)N(Cc1cnn(C)c1)C(=O)N(c1c(Cl)c(OC)cc(OC)c1Cl)C2 (centres unmarked) [Compound I-213],< 100 nM,< 100 nM,,
C=CC(=O)Nc1cc(C)ccc1Nc1ncc2c(n1)N(C)C(=O)N(c1cc(OC)cc(OC)c1)C2 [Compound I-41],101 to 500 nM,< 100 nM,,
C=CC(=O)Nc1ccccc1Nc1ncc2c(n1)N(Cc1ccnc(N)c1)C(=O)N(c1cc(OC)cc(OC)c1)C2 [Compound I-87],< 100 nM,< 100 nM,,
C=CC(=O)NC1CCCCC1Nc1ncc2c(n1)N(Cc1ccnc(N)c1)C(=O)N(c1c(Cl)c(OC)cc(OC)c1Cl)C2 (centres unmarked) [Compound I-133],< 100 nM,< 100 nM,,
C=CC(=O)Nc1ccccc1Nc1ncc2c(n1)N(CCOC)C(=O)N(c1cc(OC)cc(OC)c1)C2 [Compound I-59],101 to 500 nM,< 100 nM,,
C=CC(=O)Nc1cc(F)ccc1Nc1ncc2cc(-c3c(Cl)c(OC)cc(OC)c3Cl)c(=O)n(C)c2n1 [Compound I-245],< 100 nM,< 100 nM,,
C=CC(=O)NC1COCC1Nc1ncc2c(n1)N(C)C(=O)N(c1c(F)c(OC)cc(OC)c1Cl)C2 (centres unmarked) [Compound I-206],< 100 nM,< 100 nM,,
C=CC(=O)NC1CN(C)CC1Nc1ncc2c(n1)N(C)C(=O)N(c1c(Cl)c(OC)cc(OC)c1Cl)C2 (racemic) [Compound I-138],101 to 500 nM,,,
C=CC(=O)Nc1cc(N(C)CCOC)ccc1Nc1ncc2c(n1)N(Cc1ccccc1)C(=O)N(c1cc(OC)cc(OC)c1)C2 [Compound I-13],101 to 500 nM,,101 to 500 nM,
C=CC(=O)Nc1ccccc1Nc1ncc2c(n1)N(Cc1cn[nH]c1)C(=O)N(c1cc(OC)cc(OC)c1)C2 [Compound I-121],< 100 nM,< 100 nM,,
C=CC(=O)Nc1ccccc1Nc1ncc2c(n1)N(CC(F)F)C(=O)N(c1cc(OC)cc(OC)c1Cl)C2 [Compound I-104],< 100 nM,< 100 nM,,
C=CC(=O)Nc1ccccc1Nc1ncc2c(n1)N(CC(O)CO)C(=O)N(c1cc(OC)cc(OC)c1)C2 (centres unmarked) [Compound I-33],> 1000 nM,,,

Compound,EC50 (pFGFR4 in Huh7 cells),IC50 (FGFR4-WT; [1]),IC50 (FGFR4-WT; [2]),IC50 (FGFR4-WT)
C=CC(=O)NC1CCCCC1Nc1ncc2c(n1)N(Cc1ccn(C)c(=O)c1)C(=O)N(c1c(Cl)c(OC)cc(OC)c1Cl)C2 (centres unmarked) [Compound I-132],101 to 500 nM,< 100 nM,,
C=CC(=O)Nc1ccccc1Nc1ncc2c(n1)N(C1CCCNC1)C(=O)N(c1cc(OC)cc(OC)c1)C2 (centres unmarked) [Compound I-43],> 1000 nM,< 100 nM,,
C=CC(=O)NC1COCC1Nc1ncc2c(n1)N(C)C(=O)N(c1c(Cl)c(OC)cc(OC)c1Cl)C2 (centres unmarked) [Compound I-126],< 100 nM,< 100 nM,,
C=CC(=O)Nc1cc(C(F)(F)F)ccc1Nc1ncc2c(n1)N(Cc1ccccc1)C(=O)N(c1c(Cl)c(OC)cc(OC)c1Cl)C2 [Compound I-6],101 to 500 nM,,501 to 999 nM,
C=CC(=O)NC1CS(=O)(=O)CC1Nc1ncc2c(n1)N(C)C(=O)N(c1c(Cl)c(OC)cc(OC)c1Cl)C2 (centres unmarked) [Compound I-200],101 to 500 nM,< 100 nM,,
C=CC(=O)N[C@@H]1COC[C@@H]1Nc1ncc2c(n1)N(C)C(=O)N(c1c(Cl)c(OC)cc(OC)c1Cl)C2 [Compound I-185],> 1000 nM,> 1000 nM,,
C=CC(=O)Nc1cc(N2CCN(CCOC)CC2)ccc1Nc1ncc2c(n1)N(Cc1cccc(NC(=O)CC)c1)C(=O)N(c1cc(OC)cc(OC)c1)C2 [Compound I-9],101 to 500 nM,,,
C=CC(=O)Nc1cc(-c2nnnn2C)ccc1Nc1ncc2c(n1)N(C)C(=O)N(c1c(Cl)c(OC)cc(OC)c1Cl)C2 [Compound I-153],< 100 nM,< 100 nM,,
C=CC(=O)Nc1ccccc1Nc1ncc2c(n1)N(Cc1cccc(C(N)=O)c1)C(=O)N(c1cc(OC)cc(OC)c1)C2 [Compound I-97],101 to 500 nM,< 100 nM,,
C=CC(=O)NC1CN(C2CCN(C)CC2)CC1Nc1ncc2c(n1)N(C)C(=O)N(c1c(Cl)c(OC)cc(OC)c1Cl)C2 (racemic) [Compound I-154],> 1000 nM,101 to 500 nM,,
C=CC(=O)NC1CN(c2ccn(C)n2)CC1Nc1ncc2c(n1)N(C)C(=O)N(c1c(Cl)c(OC)cc(OC)c1Cl)C2 (centres unmarked) [Compound I-204],< 100 nM,< 100 nM,,
C=CC(=O)Nc1cc(N2CCN(C(=O)CCCC(=O)NCCCOCCOCCOCCCNC(=O)CCCC[C@@H]3SC[C@@H]4NC(=O)N[C@@H]43)CC2)ccc1Nc1ncc2c(n1)N(C)C(=O)N(c1c(Cl)c(OC)cc(OC)c1Cl)C2 [Compound I-127],101 to 500 nM,,,< 100 nM
C=CC(=O)Nc1ccccc1Nc1ncc2c(n1)N(CCF)C(=O)N(c1cc(OC)cc(OC)c1)C2 [Compound I-102],< 100 nM,< 100 nM,,
C=CC(=O)Nc1ccccc1Nc1ncc2c(n1)N(C)C(=O)N(c1c(F)c(OC)cc(OC)c1F)C2 [Compound I-131],< 100 nM,< 100 nM,,
C=CC(=O)NC1COCC1Nc1ncc2c(n1)N(Cc1cn[nH]c1)C(=O)N(c1c(Cl)c(OC)cc(OC)c1Cl)C2 (centres unmarked) [Compound I-214],101 to 500 nM,,,
C=CC(=O)N[C@H]1COCC[C@H]1Nc1ncc2c(n1)N(C)C(=O)N(c1c(Cl)c(OC)cc(OC)c1Cl)C2 [Compound I-140],101 to 500 nM,101 to 500 nM,,
C=CC(=O)N[C@H]1CCCC[C@H]1Nc1ncc2c(n1)N(C)C(=O)N(c1c(F)c(OC)cc(OC)c1F)C2 [Compound I-143],101 to 500 nM,< 100 nM,,
C=CC(=O)Nc1ccccc1Nc1ncc2c(n1)N(CC1CC1)C(=O)N(c1cc(OC)cc(OC)c1)C2 [Compound I-98],< 100 nM,< 100 nM,,
C=CC(=O)NC1COCC1Nc1ncc2c(n1)N(Cc1cc[nH]n1)C(=O)N(c1c(Cl)c(OC)cc(OC)c1Cl)C2 (centres unmarked) [Compound I-216],101 to 500 nM,< 100 nM,,
C=CC(=O)Nc1cc(OC)ccc1Nc1ncc2cc(-c3c(Cl)c(OC)cc(OC)c3Cl)c(=O)n(C)c2n1 [Compound I-242],< 100 nM,,,
C=CC(=O)NC1COCC1Nc1ncc2c(n1)N(CC1CC1)C(=O)N(c1c(Cl)c(OC)cc(OC)c1Cl)C2 (centres unmarked) [Compound I-212],< 100 nM,,,
C=CC(=O)NC1COCC1Nc1ncc2c(n1)N(Cc1cscn1)C(=O)N(c1c(Cl)c(OC)cc(OC)c1Cl)C2 (centres unmarked) [Compound I-210],< 100 nM,,,
C=CC(=O)N[C@H]1CCCC[C@H]1Nc1ncc2c(n1)N(Cc1cscn1)C(=O)N(c1c(Cl)c(OC)cc(OC)c1Cl)C2 [Compound I-114],101 to 500 nM,,,
C=CC(=O)N[C@H]1CCCC[C@H]1Nc1ncc2c(n1)N(C)C(=O)N(c1c(Cl)c(OC)c(OC)c(OC)c1Cl)C2 [Compound I-221],> 1000 nM,,,
C=CC(=O)Nc1ccccc1Nc1ncc2c(n1)N(CCC(O)CO)C(=O)N(c1cc(OC)cc(OC)c1)C2 (centres unmarked) [Compound I-58],,< 100 nM,,
C=CC(=O)Nc1ccccc1Nc1ncc2c(n1)N(C)C(=O)N(C1CCCCC1)C2 [Compound I-52],,501 to 999 nM,,
